# In patent US6716605B2, “Indole derivatives having an antiviral activity” (Shionogi & Co., Ltd., priority 1998, dated 2004):
# Test system: not given
# Experiment: not given
row,Compound,melting point
1,O=C(O)c1cccc(C(O)=CC(=O)c2c[nH]c3ccc(Cl)cc23)c1,> 270 °C (dec.)
2,O=C(O)C(O)=CC(=O)c1cn(C(=O)c2ccc(F)cc2)c2ccc(Cl)cc12,213 to 218 °C
3,O=C(/C=C(\O)c1nc[nH]n1)c1cn(S(=O)(=O)c2cc(Cl)ccc2Cl)c2ccc(Cl)cc12,301 to 302 °C
4,O=C(O)/C(O)=C/C(=O)c1cn(Cc2ccc(C(=O)O)cc2)c2ccc(Cl)cc12,245 °C (dec.)
5,O=C(/C=C(\O)c1nc[nH]n1)c1cn(S(=O)(=O)c2ccc(F)cc2)c2ccc(Br)cc12,266 to 270 °C
6,O=C(/C=C(\O)c1nc[nH]n1)c1cn(Cc2ccc(F)cc2)c2ccc(Br)cc12,265 to 268 °C
7,COc1ccccc1Cc1[nH]c2ccc(Cl)cc2c1C(=O)/C=C(\O)c1nn[nH]n1,245 °C (dec.)
8,O=C(/C=C(\O)c1nn[nH]n1)c1c(CCCc2ccc(F)cc2)[nH]c2ccc(Cl)cc12,181 to 182 °C (dec.)
9,CCOC(=O)C(=CC(=O)c1cn(Cc2ccccc2)c2ccc(Cl)cc12)NC,131 to 132 °C
10,O=C(OC(c1ccccc1)c1ccccc1)C(O)=CC(=O)c1cn(C(=O)c2ccc(F)cc2)c2ccc(Cl)cc12,198 to 200 °C
11,O=C(/C=C(\O)c1nccs1)c1c[nH]c2ccc(Cl)cc12,226 to 227 °C
12,O=C(C=C(O)c1nn[nH]n1)c1cn(Cc2ccccc2)c2ccc(Cl)cc12 [Example 81],> 240 °C
13,COC(=O)/C(O)=C/C(=O)c1c(Cc2ccc(F)cc2)[nH]c2ccc(Cl)cc12,235 to 238 °C
14,O=C(/C=C(\O)c1ncc[nH]1)c1c[nH]c2ccc(Cl)cc12,272 to 276 °C
15,CCOCCNC(=CC(=O)c1cn(Cc2ccccc2)c2ccc(Cl)cc12)C(=O)O,184 to 186 °C (dec.)
16,O=C(/C=C(\O)c1nccs1)c1cn(S(=O)(=O)c2ccccc2)c2ccc(Cl)cc12,191 to 194 °C
17,O=C(/C=C(\O)c1nn[nH]n1)c1cn(Cc2ccccc2)c2c(Cl)cccc12,252 °C (dec.)
18,O=C(O)c1cccc(C(O)=CC(=O)c2cn(S(=O)(=O)c3ccccc3)c3ccc(Cl)cc23)c1,245 to 255 °C (dec.)
19,O=C(/C=C(\O)c1nc[nH]n1)c1cn(Cc2ccc(F)cc2)c2cc(Cl)ccc12,260 to 263 °C
20,CCOC(=O)C(N)=CC(=O)c1c[nH]c2ccccc12,200 to 205 °C
21,O=C(C=C(O)c1nc[nH]n1)c1c[nH]c2ccc(Cl)cc12 [Example 71],277 to 279 °C
22,CCOCCNC(=CC(=O)c1cn(Cc2ccccc2)c2ccc(Cl)cc12)C(=O)OCC,73 to 74 °C
23,O=C(/C=C(\O)c1nc[nH]n1)c1cn(Cc2ccccc2)c2ccc(Cl)cc12,264 to 265 °C
24,CNC(=CC(=O)c1cn(Cc2ccccc2)c2ccc(Cl)cc12)C(=O)O,205 to 210 °C (dec.)
25,COc1ccccc1Cn1cc(C(=O)/C=C(\O)c2nn[nH]n2)c2cc(Cl)ccc21,256 °C (dec.)
26,O=C(/C=C(\O)c1nc[nH]n1)c1cn(S(=O)(=O)c2ccc(F)cc2)c2cc(Cl)ccc12,293 to 298 °C (dec.)
27,O=C(C=C(O)c1nn[nH]n1)c1cn(S(=O)(=O)c2cccs2)c2ccc(Cl)cc12 [Example 80],243 °C
28,O=C(/C=C(\O)c1nc[nH]n1)c1cn(S(=O)(=O)c2ccccc2)c2cc(Cl)ccc12,265 to 270 °C
29,O=C(/C=C(\O)c1nc[nH]n1)c1cn(S(=O)(=O)c2ccccc2)c2ccc(Br)cc12,290 to 295 °C (dec.)
30,O=C(/C=C(\O)c1nn[nH]n1)c1c([S+]([O-])c2cc(Cl)cc(Cl)c2)[nH]c2ccc(Cl)cc12 (stereo not shown),200 to 204 °C (dec.)

# Biological target: HIV-1 integrase (Human immunodeficiency virus type 1 group M subtype B, UniProt P04585)
# Experiment: HIV-1 integrase inhibition assay (microtiter plate, substrate DNA/target DNA, OD 405 nm)
# Type: biochemical
# Protocol: The DNA solutions were annealed with each complement by slowly cooling after heating.
# After coating each well of microtiter plates (obtained from NUNC) with 50 μl of the above solution at 4° C. overnight, each well was washed twice with PBS (composition: […], 0.27 mM KCl, 0.43 mM Na2HPO4, 0.14 mM KH2PO4) and blocked with 300 μl of 1% skim milk in PBS for 30 min. Additionally, each well was washed twice with PBS and added 50 μl of substrate DNA solution (2 pmol/μl). The microtiter plates were kept at room temperature for 30 min. Then, each well was washed twice with PBS and once with H2O.
# The microtiter plates were incubated at 30° C. for 1 hour. […] Then, each well was washed twice with 0.05% Tween20 in PBS and once with PBS. […] The optical density (OD) at 405 nm of each well was measured and the percent inhibition was determined by the following expression.
row,Compound,IC50 [µM]
1,O=C(C=C(O)c1nn[nH]n1)c1cn(Cc2ccccc2)c2ccc(Cl)cc12 [Example 81],9.48
2,O=C(C=C(O)c1nc[nH]n1)c1c[nH]c2ccc(Cl)cc12 [Example 71],5.16
3,O=C(C=C(O)c1nn[nH]n1)c1cn(S(=O)(=O)c2cccs2)c2ccc(Cl)cc12 [Example 80],7.57
4,"O=C(O)C(O)=CC(=O)c1cn(S(=O)(=O)c2ccccc2)c2ccc(Cl)cc12 [Example 23(2), 4-(1-Benzenesulfonyl-5-chloroindol-3-yl)-2-hydroxy-4-oxo-2butenoic acid]",0.32
